Reference: US20070196886A1 (priority 2004, published 2007)
Read-outs that look alike come from different tables or passages of the source.

How the values were obtained:
bacterial RNAP = conditions: unpublished data
[1] = test system: Strain DH5α transformed with pRL663 or a pRL663 derivative
RNAP holoenzyme = RNAP holoenzyme (Escherichia coli, UniProt P0A8T7+P0A8V2); experiment: Electrophoretic mobility shift assays (open-complex formation); type: biochemical; conditions: MccJ25 at 1, 10, or 100 μM; lacUV5 promoter
Chain of RNAP holoenzyme (P0A8V2 whole entry): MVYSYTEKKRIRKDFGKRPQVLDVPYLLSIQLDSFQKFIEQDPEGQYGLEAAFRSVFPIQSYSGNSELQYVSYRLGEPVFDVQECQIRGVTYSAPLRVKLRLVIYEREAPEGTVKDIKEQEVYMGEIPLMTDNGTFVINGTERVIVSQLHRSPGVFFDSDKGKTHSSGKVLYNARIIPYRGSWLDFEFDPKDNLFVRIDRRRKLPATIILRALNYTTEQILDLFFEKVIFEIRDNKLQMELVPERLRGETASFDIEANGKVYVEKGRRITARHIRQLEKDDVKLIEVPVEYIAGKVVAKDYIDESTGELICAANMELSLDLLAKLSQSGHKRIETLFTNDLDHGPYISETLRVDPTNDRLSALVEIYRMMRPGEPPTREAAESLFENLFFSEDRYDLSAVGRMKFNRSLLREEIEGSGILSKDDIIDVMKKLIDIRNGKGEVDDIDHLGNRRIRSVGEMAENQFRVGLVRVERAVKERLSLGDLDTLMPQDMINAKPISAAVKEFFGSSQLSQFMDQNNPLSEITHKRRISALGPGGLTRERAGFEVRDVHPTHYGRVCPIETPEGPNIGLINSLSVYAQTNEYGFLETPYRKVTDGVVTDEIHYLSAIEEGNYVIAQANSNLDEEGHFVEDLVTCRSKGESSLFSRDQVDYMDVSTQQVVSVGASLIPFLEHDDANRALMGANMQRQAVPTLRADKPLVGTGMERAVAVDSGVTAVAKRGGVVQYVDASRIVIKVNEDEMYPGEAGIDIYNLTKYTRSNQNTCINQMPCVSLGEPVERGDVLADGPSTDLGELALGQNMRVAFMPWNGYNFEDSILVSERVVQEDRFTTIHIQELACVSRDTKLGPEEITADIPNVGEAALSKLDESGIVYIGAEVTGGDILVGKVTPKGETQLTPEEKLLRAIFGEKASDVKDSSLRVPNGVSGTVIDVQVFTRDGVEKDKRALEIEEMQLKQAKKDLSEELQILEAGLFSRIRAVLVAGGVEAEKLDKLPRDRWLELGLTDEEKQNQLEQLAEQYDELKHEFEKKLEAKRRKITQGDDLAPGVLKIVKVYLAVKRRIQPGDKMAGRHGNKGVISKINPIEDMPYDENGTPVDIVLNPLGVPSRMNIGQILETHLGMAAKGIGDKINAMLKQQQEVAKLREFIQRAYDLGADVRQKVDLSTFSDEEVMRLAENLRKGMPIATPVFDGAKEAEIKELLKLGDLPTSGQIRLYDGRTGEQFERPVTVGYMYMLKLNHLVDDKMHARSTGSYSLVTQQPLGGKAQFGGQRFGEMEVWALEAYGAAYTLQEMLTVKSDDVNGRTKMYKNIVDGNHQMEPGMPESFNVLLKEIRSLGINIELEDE
Chain of RNAP holoenzyme (P00579 whole entry, further chain): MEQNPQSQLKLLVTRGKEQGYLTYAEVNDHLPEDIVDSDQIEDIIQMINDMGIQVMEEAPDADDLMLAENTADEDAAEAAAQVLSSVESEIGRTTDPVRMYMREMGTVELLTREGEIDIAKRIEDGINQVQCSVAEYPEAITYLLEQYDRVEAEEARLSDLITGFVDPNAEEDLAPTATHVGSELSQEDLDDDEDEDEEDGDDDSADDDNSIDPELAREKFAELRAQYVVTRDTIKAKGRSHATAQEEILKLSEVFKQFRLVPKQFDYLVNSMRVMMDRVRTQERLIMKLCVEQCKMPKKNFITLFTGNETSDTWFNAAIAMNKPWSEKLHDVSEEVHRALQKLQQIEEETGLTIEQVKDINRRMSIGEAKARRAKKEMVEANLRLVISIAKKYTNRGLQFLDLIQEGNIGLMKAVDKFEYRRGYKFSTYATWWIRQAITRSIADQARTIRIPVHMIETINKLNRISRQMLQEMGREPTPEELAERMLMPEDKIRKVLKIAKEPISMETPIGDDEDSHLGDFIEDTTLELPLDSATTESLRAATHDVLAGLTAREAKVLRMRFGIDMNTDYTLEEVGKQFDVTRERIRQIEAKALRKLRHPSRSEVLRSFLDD
Chain of RNAP holoenzyme (P0A7Z4 whole entry, further chain): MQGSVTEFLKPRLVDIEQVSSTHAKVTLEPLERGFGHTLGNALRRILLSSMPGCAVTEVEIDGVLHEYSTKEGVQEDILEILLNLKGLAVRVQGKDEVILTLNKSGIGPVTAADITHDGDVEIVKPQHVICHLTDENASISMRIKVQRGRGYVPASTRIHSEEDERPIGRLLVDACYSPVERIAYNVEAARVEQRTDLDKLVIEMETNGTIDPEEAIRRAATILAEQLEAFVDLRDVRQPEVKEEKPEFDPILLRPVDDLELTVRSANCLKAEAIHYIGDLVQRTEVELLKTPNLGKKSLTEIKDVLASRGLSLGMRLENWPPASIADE
Chain of RNAP holoenzyme (P0A800 whole entry, further chain): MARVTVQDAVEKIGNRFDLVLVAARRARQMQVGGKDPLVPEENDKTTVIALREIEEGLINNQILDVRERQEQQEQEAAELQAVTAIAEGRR
Chain of RNAP holoenzyme (P0A8T7 whole entry): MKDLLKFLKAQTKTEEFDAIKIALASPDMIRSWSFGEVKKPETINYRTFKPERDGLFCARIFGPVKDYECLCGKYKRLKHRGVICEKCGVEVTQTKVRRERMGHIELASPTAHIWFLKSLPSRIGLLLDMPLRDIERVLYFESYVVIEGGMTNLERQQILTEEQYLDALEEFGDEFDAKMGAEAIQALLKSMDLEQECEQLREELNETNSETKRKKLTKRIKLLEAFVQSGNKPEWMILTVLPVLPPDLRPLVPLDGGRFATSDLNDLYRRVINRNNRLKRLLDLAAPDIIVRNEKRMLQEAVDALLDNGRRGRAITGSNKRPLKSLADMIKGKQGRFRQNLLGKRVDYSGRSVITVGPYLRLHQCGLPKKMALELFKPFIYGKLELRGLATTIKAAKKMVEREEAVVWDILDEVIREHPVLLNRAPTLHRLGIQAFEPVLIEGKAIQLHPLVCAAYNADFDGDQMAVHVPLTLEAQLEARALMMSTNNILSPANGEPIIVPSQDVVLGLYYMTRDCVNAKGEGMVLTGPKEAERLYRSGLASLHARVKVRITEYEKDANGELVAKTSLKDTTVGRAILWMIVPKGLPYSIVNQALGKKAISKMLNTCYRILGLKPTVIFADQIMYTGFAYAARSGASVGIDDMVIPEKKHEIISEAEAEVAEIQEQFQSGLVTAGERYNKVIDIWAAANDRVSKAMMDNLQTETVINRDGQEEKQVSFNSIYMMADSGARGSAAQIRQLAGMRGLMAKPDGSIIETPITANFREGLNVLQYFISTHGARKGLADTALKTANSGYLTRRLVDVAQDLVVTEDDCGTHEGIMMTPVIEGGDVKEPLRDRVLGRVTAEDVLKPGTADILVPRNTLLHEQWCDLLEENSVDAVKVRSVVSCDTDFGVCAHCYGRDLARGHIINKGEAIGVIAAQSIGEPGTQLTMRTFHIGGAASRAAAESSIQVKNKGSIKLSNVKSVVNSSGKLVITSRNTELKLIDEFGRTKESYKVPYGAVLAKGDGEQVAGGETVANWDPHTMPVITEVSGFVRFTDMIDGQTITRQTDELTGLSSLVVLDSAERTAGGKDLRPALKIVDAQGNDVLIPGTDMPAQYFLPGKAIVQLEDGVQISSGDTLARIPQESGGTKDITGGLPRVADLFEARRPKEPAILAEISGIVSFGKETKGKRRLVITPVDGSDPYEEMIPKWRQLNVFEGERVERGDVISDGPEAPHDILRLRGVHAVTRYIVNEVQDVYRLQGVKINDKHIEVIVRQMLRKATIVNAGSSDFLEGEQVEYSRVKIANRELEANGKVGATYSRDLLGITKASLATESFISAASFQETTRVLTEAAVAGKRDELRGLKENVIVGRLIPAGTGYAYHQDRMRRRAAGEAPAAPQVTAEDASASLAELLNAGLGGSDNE
Method: Following 15 min at 37° C., 0.5 μl 1 mg/ml heparin was added (to disrupt non-specific complexes), and, following a further 2 min at 37° C., reaction mixtures were applied to 5% polyacrylamide slab gels (30:1 acrylamide/bisacrylamide; 6×9×0.1 cm) and electrophoresed in 90 mM Tris-borate (pH 8.0) and 0.2 mM EDTA (20 V/cm; 30 min at 37° C.) and analyzed using a fluorescence scanner (Storm 860; Molecular Dynamics)

Question: Which results are given for Microcin J25 [MccJ25]?
Answer: cross-resistance with rifampicin (bacterial RNAP): do not exhibit cross-resistance with rifampicin; increase in MBC ([1]; 18 of 22 MccJ25-resistant mutants from random mutagenesis): ≥ 50 fold; increase in MBC ([1]; all 22 MccJ25-resistant mutants from random mutagenesis): ≥ 5 fold; MBC ([1]; no substitution (wild-type β′), 2 h at 37° C.): 0 µg/mL; MBC ([1]; rpoB 543 Ala→Leu, 549 Asp→Tyr, multiple-substitution mutant): 50 µg/mL; MBC ([1]; rpoB 543 Ala→Pro, 546 Glu→Gly, multiple-substitution mutant): 50 µg/mL; MBC ([1]; rpoB 544 Gly→Asp, saturation mutagenesis): 50 µg/mL; MBC ([1]; rpoB 545 Phe→Leu, 546 Glu→Asp, multiple-substitution mutant): 50 µg/mL; MBC ([1]; rpoB 545 Phe→Ser, saturation mutagenesis): 50 µg/mL; MBC ([1]; rpoB 548 Arg→Gln, saturation mutagenesis): 50 µg/mL; MBC ([1]; rpoB 549 Asp→His, saturation mutagenesis): 50 µg/mL; MBC ([1]; rpoC 428 Thr→Asn, saturation mutagenesis): 500 µg/mL; MBC ([1]; rpoC 428 Thr→Ile, saturation mutagenesis): 500 µg/mL; MBC ([1]; rpoC 429 Leu→Gln, saturation mutagenesis): 500 µg/mL; MBC ([1]; rpoC 430 His→Tyr, saturation mutagenesis): 500 µg/mL; MBC ([1]; rpoC 493 Pro→Thr, 498 Pro→Thr, multiple-substitution mutant): 100 µg/mL; MBC ([1]; rpoC 498 Pro→Gln, saturation mutagenesis): 1000 µg/mL; MBC ([1]; rpoC 498 Pro→Leu, saturation mutagenesis): 1000 µg/mL; MBC ([1]; rpoC 503 Ser→Pro, saturation mutagenesis): 500 µg/mL; MBC ([1]; rpoC 503 Ser→Tyr, saturation mutagenesis): 500 µg/mL; MBC ([1]; rpoC 504 Gln→Arg, saturation mutagenesis): 500 µg/mL; MBC ([1]; rpoC 504 Gln→Glu, saturation mutagenesis): 500 µg/mL; MBC ([1]; rpoC 508 Leu→Val, saturation mutagenesis): 50 µg/mL; MBC ([1]; rpoC 680 Asn→Lys, saturation mutagenesis): 500 µg/mL; MBC ([1]; rpoC 684 Asp→Ala, saturation mutagenesis): 1000 µg/mL; MBC ([1]; rpoC 684 Asp→Glu, saturation mutagenesis): 500 µg/mL; MBC ([1]; rpoC 684 Asp→Tyr, saturation mutagenesis): 500 µg/mL; MBC ([1]; rpoC 684 Asp→Val, saturation mutagenesis): 500 µg/mL; MBC ([1]; rpoC 732 Gly→Asp, saturation mutagenesis): 100 µg/mL; MBC ([1]; rpoC 732 Gly→Asp, 733 Ser→Ala, multiple-substitution mutant): 100 µg/mL; MBC ([1]; rpoC 732 Gly→Asp, Gly→Thr, multiple-substitution mutant): 500 µg/mL; MBC ([1]; rpoC 733 Ser→Phe, saturation mutagenesis): 100 µg/mL; MBC ([1]; rpoC 733 Ser→Tyr, saturation mutagenesis): 100 µg/mL; MBC ([1]; rpoC 733 Ser→Val, saturation mutagenesis): 500 µg/mL; MBC ([1]; rpoC 733 Ser→Val, 734 Ala→Gly, multiple-substitution mutant): 100 µg/mL; MBC ([1]; rpoC 735 Ala→Δ, saturation mutagenesis): 1000 µg/mL; MBC ([1]; rpoC 736 Gln→Pro, saturation mutagenesis): 500 µg/mL; MBC ([1]; rpoC 738 Arg→Leu, saturation mutagenesis): 50 µg/mL; MBC ([1]; rpoC 744 Arg→His, saturation mutagenesis): 50 µg/mL; MBC ([1]; rpoC 744 Arg→Pro, saturation mutagenesis): 50 µg/mL; MBC ([1]; rpoC 748 Ala→Pro, saturation mutagenesis): 100 µg/mL; MBC ([1]; rpoC 775 Ser→Cys, saturation mutagenesis): 500 µg/mL; MBC ([1]; rpoC 776 Thr→Ile, saturation mutagenesis): 500 µg/mL; MBC ([1]; rpoC 777 His→Pro, saturation mutagenesis): 500 µg/mL; MBC ([1]; rpoC 777 His→Ser, 778 Gly→Ala, multiple-substitution mutant): 500 µg/mL; MBC ([1]; rpoC 777 His→Tyr, saturation mutagenesis): 1000 µg/mL; MBC ([1]; rpoC 779 Ala→Gly, saturation mutagenesis): 500 µg/mL; MBC ([1]; rpoC 779 Ala→Pro, saturation mutagenesis): 500 µg/mL; MBC ([1]; rpoC 779 Ala→Thr, saturation mutagenesis): 1000 µg/mL; MBC ([1]; rpoC 780 Arg→Cys, saturation mutagenesis): 1000 µg/mL; MBC ([1]; rpoC 782 Gly→Ala, saturation mutagenesis): 1000 µg/mL; MBC ([1]; rpoC 783 Leu→Pro, saturation mutagenesis): 100 µg/mL; MBC ([1]; rpoC 784 Ala→Glu, saturation mutagenesis): 500 µg/mL; MBC ([1]; rpoC 785 Asp→Gly, saturation mutagenesis): 500 µg/mL; MBC ([1]; rpoC 786 Thr→Ala, saturation mutagenesis): 500 µg/mL; MBC ([1]; rpoC 786 Thr→Ile, saturation mutagenesis): 500 µg/mL; MBC ([1]; rpoC 788 Leu→Met, saturation mutagenesis): 1000 µg/mL; MBC ([1]; rpoC 789 Lys→Arg, saturation mutagenesis): 500 µg/mL; MBC ([1]; rpoC 789 Lys→Asn, saturation mutagenesis): 1000 µg/mL; MBC ([1]; rpoC 789 Lys→Gln, saturation mutagenesis): 1000 µg/mL; MBC ([1]; rpoC 790 Thr→Ala, saturation mutagenesis): 1000 µg/mL; MBC ([1]; rpoC 790 Thr→Asn, saturation mutagenesis): 500 µg/mL; MBC ([1]; rpoC 790 Thr→Ile, saturation mutagenesis): 1000 µg/mL; MBC ([1]; rpoC 790 Thr→Ser, saturation mutagenesis): 500 µg/mL; MBC ([1]; rpoC 922 Cys→Tyr, saturation mutagenesis): 500 µg/mL; MBC ([1]; rpoC 926 Pro→Ser, saturation mutagenesis): 500 µg/mL; MBC ([1]; rpoC 927 Gly→Cys, saturation mutagenesis): 1000 µg/mL; MBC ([1]; rpoC 927 Gly→Ser, saturation mutagenesis): 1000 µg/mL; MBC ([1]; rpoC 930 Leu→Met, saturation mutagenesis): 1000 µg/mL; MBC ([1]; rpoC 931 Thr→Ala, saturation mutagenesis): 1000 µg/mL; MBC ([1]; rpoC 931 Thr→Ile, saturation mutagenesis): 1000 µg/mL; MBC ([1]; rpoC 932 Met→Ile, saturation mutagenesis): 1000 µg/mL; MBC ([1]; rpoC 933 Arg→Cys, saturation mutagenesis): 1000 µg/mL; MBC ([1]; rpoC 1136 Gly→Ala, saturation mutagenesis): 500 µg/mL; MBC ([1]; rpoC 1136 Gly→Cys, saturation mutagenesis): 1000 µg/mL; MBC ([1]; rpoC 1137 Gly→Ala, saturation mutagenesis): 500 µg/mL; MBC ([1]; rpoC 1137 Gly→Arg, saturation mutagenesis): 1000 µg/mL; MBC ([1]; rpoC 1240 Val→Glu, saturation mutagenesis): 500 µg/mL; MBC ([1]; rpoC 1241 Tyr→Cys, saturation mutagenesis): 100 µg/mL; MBC ([1]; rpoC 1241 Tyr→His, saturation mutagenesis): 100 µg/mL; MBC ([1]; rpoC 1241 Tyr→Ser, saturation mutagenesis): 100 µg/mL; MBC ([1]; rpoC 1244 Gln→Glu, saturation mutagenesis): 100 µg/mL; MBC ([1]; rpoC 1244 Gln→Leu, saturation mutagenesis): 500 µg/mL; MBC ([1]; rpoC 1244 Gln→Pro, saturation mutagenesis): 100 µg/mL; MBC ([1]; rpoC 1247 Lys→Gln, saturation mutagenesis): 100 µg/mL; MBC ([1]; rpoC 1247 Lys→Glu, saturation mutagenesis): 100 µg/mL; MBC ([1]; rpoC 1248 Ile→Ser, saturation mutagenesis): 100 µg/mL; MBC ([1]; β′ 424 Asn→Ser, random mutagenesis, single mutant constructed using site-directed mutagenesis): 100 µg/mL; MBC ([1]; β′ 428 Thr→Ile, random mutagenesis): 500 µg/mL; MBC ([1]; β′ 430 His→Leu, random mutagenesis): 500 µg/mL; MBC ([1]; β′ 464 Asp→Gly, random mutagenesis): 0 µg/mL; MBC ([1]; β′ 469 His→Arg, random mutagenesis): 0 µg/mL; MBC ([1]; β′ 504 Gln→Arg, random mutagenesis): 500 µg/mL; MBC ([1]; β′ 733 Ser→Phe, random mutagenesis): 500 µg/mL; MBC ([1]; β′ 738 Arg→Leu, random mutagenesis): 0 µg/mL; MBC ([1]; β′ 776 Thr→Ile, random mutagenesis): 500 µg/mL; MBC ([1]; β′ 779 Ala→Thr, random mutagenesis): 1000 µg/mL; MBC ([1]; β′ 780 Arg→Cys, random mutagenesis): 1000 µg/mL; MBC ([1]; β′ 782 Gly→Ala, random mutagenesis): 1000 µg/mL; MBC ([1]; β′ 785 Asp→Gly, random mutagenesis): 500 µg/mL; MBC ([1]; β′ 786 Thr→Ile, random mutagenesis): 500 µg/mL; MBC ([1]; β′ 789 Lys→Arg, random mutagenesis): 500 µg/mL; MBC ([1]; β′ 789 Lys→Gln, random mutagenesis): 1000 µg/mL; MBC ([1]; β′ 869 Cys→Arg, random mutagenesis): 1000 µg/mL; MBC ([1]; β′ 933 Arg→Cys, random mutagenesis): 1000 µg/mL; MBC ([1]; β′ 1244 Gln→Leu, random mutagenesis): 500 µg/mL; effect on formation of open complex (RNAP holoenzyme): no effect
